Source: ChEMBL document CHEMBL1156202, “The effect of the pyridyl nitrogen position in pyridylpiperazine sigma ligands” (Bioorg Med Chem Lett, 2010)

How the values were obtained:
[1] = Displacement of [3H]di-O-tolylguanidine from rat brain membrane sigma 2 receptor after 120 mins in the presence of (+)-pentazocin
[2] = species on record: Rattus norvegicus; assay: Selectivity ratio of Ki for rat brain membrane sigma 1receptor to Ki for rat brain membrane sigma 2 receptor
[3] = biological target: Sigma non-opioid intracellular receptor 1 (Rattus norvegicus, UniProt Q9R0C9); assay: Displacement of [3H](+)-pentazocine from rat brain membrane sigma 1receptor after 120 mins
Sigma non-opioid intracellular receptor 1, sequence (Q9R0C9 whole entry): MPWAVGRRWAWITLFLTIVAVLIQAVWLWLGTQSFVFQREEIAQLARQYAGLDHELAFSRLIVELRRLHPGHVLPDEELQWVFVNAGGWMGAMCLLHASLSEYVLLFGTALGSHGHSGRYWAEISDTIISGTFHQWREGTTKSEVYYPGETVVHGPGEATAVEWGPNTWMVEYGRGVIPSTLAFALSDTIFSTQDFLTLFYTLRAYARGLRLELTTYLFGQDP

Row | Compound | Ki [1] [nM] | Ratio Ki [2] | Ki [3] [nM]
1 | c1ccc(CCN2CCN(c3ccncc3)CC2)cc1 | 69.7 | 0.6 | 41.8
2 | c1ccc(CCN2CCN(c3ccccn3)CC2)cc1 | 119 | 2.7 | –
3 | c1ccc(CCCN2CCN(c3cccnc3)CC2)cc1 | 110 | 0.19 | 21.2
4 | c1ccc(CCCN2CCN(c3ccncc3)CC2)cc1 | 84 | 0.41 | 34.2
5 | c1ccc(CCN2CCN(c3cccnc3)CC2)cc1 | 440 | 0.22 | 97.2
6 | c1ccc(CCCN2CCN(c3ccccn3)CC2)cc1 | 4.91 | 16.9 | –
